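Values below derive from 48-hour exposures of cells grown in 96-well plates, with endpoints linearly interpolated between the two concentrations bracketing the appropriate inhibition level. GI50 marks 50% less growth. TGI: concentration producing complete growth inhibition.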
Columns and labels:
Experiment in all cases: DTP human tumour cell line panel, 48 h
M19-MEL melanoma = system: M19-MEL melanoma
NCI-H23 lung = system: NCI-H23 lung
SNB-78 CNS = system: SNB-78 CNS
DMS 114 small cell lung = system: DMS 114 small cell lung
DLD-1 colon = system: DLD-1 colon
XF 498 CNS = system: XF 498 CNS
DMS 273 small cell lung = system: DMS 273 small cell lung
LXFL 529 NSCLC = system: LXFL 529 NSCLC
SW-620 colon = system: SW-620 colon
786-0 renal = system: 786-0 renal
SN12C renal = system: SN12C renal
NCI-H226 lung = system: NCI-H226 lung
K-562 leukemia = system: K-562 leukemia
KM12 colon = system: KM12 colon
OVCAR-8 ovarian = system: OVCAR-8 ovarian
SK-MEL-5 melanoma = system: SK-MEL-5 melanoma
HCT-116 colon = system: HCT-116 colon
HOP-62 NSCLC = system: HOP-62 NSCLC
CCRF-CEM leukemia = system: CCRF-CEM leukemia
MOLT-4 leukemia = system: MOLT-4 leukemia
HT29 colon = system: HT29 colon
OVCAR-3 ovarian = system: OVCAR-3 ovarian
SR leukemia = system: SR leukemia
U251 CNS = system: U251 CNS
SF-268 CNS = system: SF-268 CNS
LOX IMVI melanoma = system: LOX IMVI melanoma
NCI-H460 lung = system: NCI-H460 lung
SNB-19 CNS = system: SNB-19 CNS
HCT-15 colon = system: HCT-15 colon
UACC-62 melanoma = system: UACC-62 melanoma
HL-60(TB) leukemia = system: HL-60(TB) leukemia
IGROV1 ovarian = system: IGROV1 ovarian
UO-31 renal = system: UO-31 renal
MALME-3M melanoma = system: MALME-3M melanoma
KM20L2 colon = system: KM20L2 colon
TK-10 renal = system: TK-10 renal
OVCAR-5 ovarian = system: OVCAR-5 ovarian
HCC-2998 colon = system: HCC-2998 colon
ACHN renal = system: ACHN renal
SF-539 CNS = system: SF-539 CNS
HOP-92 NSCLC = system: HOP-92 NSCLC
A549 NSCLC = system: A549 NSCLC
SK-MEL-28 melanoma = system: SK-MEL-28 melanoma
COLO 205 colon = system: COLO 205 colon
SK-OV-3 ovarian = system: SK-OV-3 ovarian
NCI-H522 lung = system: NCI-H522 lung
SK-MEL-2 melanoma = system: SK-MEL-2 melanoma
M14 melanoma = system: M14 melanoma
RPMI-8226 leukemia = system: RPMI-8226 leukemia

Structure (SMILES): C/C=C(\NC(=O)C(CCCCN)NC(=O)C(C)NC(=O)C1CSC(C)C(NC(=O)C2CSCC(NC(=O)C(C)NC(=O)C(N)C(C)CC)C(=O)NC(CCCCN)C(=O)NC(Cc3ccccc3)C(=O)NC(CC(C)C)C(=O)N2)C(=O)N2CCCC2C(=O)NCC(=O)N1)C(=O)NCC(=O)NC1CSCC2NC(=O)C(Cc3ccc(O)cc3)NC(=O)C(CSC=CNC2=O)NC(=O)C(CC(N)=O)NC(=O)C(Cc2ccccc2)NC1=O (configuration not stated)
- TGI (M19-MEL melanoma): > 100 µM
- TGI (NCI-H23 lung): > 100 µM
- TGI (SNB-78 CNS): > 100 µM
- TGI (DMS 114 small cell lung): > 100 µM
- TGI (DLD-1 colon): > 100 µM
- TGI (XF 498 CNS): > 100 µM
- TGI (DMS 273 small cell lung): > 100 µM
- TGI (LXFL 529 NSCLC): > 100 µM

Structure (SMILES): COc1cc(Cc2c(C)cc(OC)c3[nH]c4ccccc4c23)cc2c1[nH]c1ccccc12
- GI50 (SW-620 colon): 8.09 µM
- TGI (SW-620 colon): > 25 µM
- GI50 (786-0 renal): 5.38 µM
- TGI (786-0 renal): 14.2 µM
- GI50 (SN12C renal): 6.4 µM
- TGI (SN12C renal): 22.8 µM
- GI50 (NCI-H226 lung): 4.67 µM
- TGI (NCI-H226 lung): 12.8 µM
- GI50 (M19-MEL melanoma): 9.67 µM
- TGI (M19-MEL melanoma): > 25 µM
- GI50 (K-562 leukemia): 7.31 µM
- TGI (K-562 leukemia): > 25 µM
- GI50 (KM12 colon): 5.43 µM
- TGI (KM12 colon): 15 µM
- TGI (OVCAR-8 ovarian): 10.9 µM
- GI50 (SK-MEL-5 melanoma): 3.94 µM
- TGI (SK-MEL-5 melanoma): 7.93 µM
- GI50 (HCT-116 colon): 9.18 µM
- TGI (HCT-116 colon): > 25 µM
- GI50 (HOP-62 NSCLC): 5.49 µM
- TGI (HOP-62 NSCLC): 11 µM
- GI50 (CCRF-CEM leukemia): 8.59 µM
- TGI (CCRF-CEM leukemia): > 25 µM
- GI50 (MOLT-4 leukemia): 5.69 µM
- TGI (MOLT-4 leukemia): > 25 µM
- GI50 (HT29 colon): 7.84 µM
- TGI (HT29 colon): > 25 µM
- TGI (SNB-78 CNS): 17 µM
- TGI (OVCAR-3 ovarian): 12.3 µM
- GI50 (SR leukemia): 7.77 µM
- TGI (SR leukemia): > 25 µM
- GI50 (U251 CNS): 4.96 µM
- TGI (U251 CNS): 9.84 µM
- GI50 (SF-268 CNS): 6.97 µM
- TGI (SF-268 CNS): 24.9 µM
- GI50 (LOX IMVI melanoma): 3.85 µM
- TGI (LOX IMVI melanoma): 8.6 µM
- TGI (DMS 114 small cell lung): > 25 µM
- GI50 (NCI-H460 lung): 5.13 µM
- TGI (NCI-H460 lung): 12.1 µM
- GI50 (DLD-1 colon): 8.99 µM
- TGI (DLD-1 colon): > 25 µM
- TGI (SNB-19 CNS): > 25 µM
- GI50 (HCT-15 colon): 6.89 µM
- TGI (HCT-15 colon): > 25 µM
- GI50 (UACC-62 melanoma): 5.61 µM
- TGI (UACC-62 melanoma): > 25 µM
- GI50 (HL-60(TB) leukemia): 7.95 µM
- TGI (HL-60(TB) leukemia): > 25 µM
- GI50 (IGROV1 ovarian): 9.03 µM
- TGI (IGROV1 ovarian): > 25 µM
- GI50 (XF 498 CNS): 6.03 µM
- TGI (XF 498 CNS): > 25 µM
- GI50 (UO-31 renal): 6.05 µM
- TGI (UO-31 renal): 18.6 µM
- GI50 (MALME-3M melanoma): 4.44 µM
- TGI (MALME-3M melanoma): 12.4 µM
- GI50 (KM20L2 colon): 5.28 µM
- TGI (KM20L2 colon): 10.8 µM
- GI50 (TK-10 renal): 12 µM
- TGI (TK-10 renal): > 25 µM
- TGI (OVCAR-5 ovarian): 12.5 µM
- GI50 (HCC-2998 colon): 5.43 µM
- TGI (HCC-2998 colon): 14.7 µM
- GI50 (DMS 273 small cell lung): 7.64 µM
- TGI (DMS 273 small cell lung): 21.6 µM
- GI50 (ACHN renal): 4.67 µM
- TGI (ACHN renal): > 25 µM
- GI50 (SF-539 CNS): 4.61 µM
- TGI (SF-539 CNS): 9.23 µM
- GI50 (HOP-92 NSCLC): 7.63 µM
- TGI (HOP-92 NSCLC): > 25 µM
- GI50 (A549 NSCLC): 5.73 µM
- TGI (A549 NSCLC): 16.7 µM
- GI50 (SK-MEL-28 melanoma): 8.61 µM
- TGI (SK-MEL-28 melanoma): > 25 µM
- GI50 (COLO 205 colon): 12 µM
- TGI (COLO 205 colon): > 25 µM
- GI50 (SK-OV-3 ovarian): 8.8 µM
- TGI (SK-OV-3 ovarian): > 25 µM
- GI50 (NCI-H522 lung): 5.03 µM
- TGI (NCI-H522 lung): 11.6 µM
- GI50 (LXFL 529 NSCLC): 4.13 µM
- TGI (LXFL 529 NSCLC): 22.4 µM
- GI50 (SK-MEL-2 melanoma): 3.97 µM
- TGI (SK-MEL-2 melanoma): 11.6 µM
- GI50 (M14 melanoma): 5.12 µM
- TGI (M14 melanoma): 11.8 µM
- TGI (RPMI-8226 leukemia): > 25 µM
